Measured values as given in publication PMC8950706, “Influence of Substitutions in the Binding Motif of Proline-Rich Antimicrobial Peptide ARV-1502 on 70S Ribosome Binding and Antimicrobial Activity” (International Journal of Molecular Sciences, 2022).
Values after ≈ are worked out from the molar mass of the structure shown. “Also recorded” adds a separate entry of the source. Square brackets hold non-standard residues; d marks the D form. Peptide text beside a SMILES is read from it. Ac6c = NC1(C(=O)O)CCCCC1

Key:
E. coli 70S ribosome [1] = assay: Competitive fluorescence polarization assay against Cf-ARV-1502 (Ki); format: binding, E. coli BW25113; details: 20 nmol/L Cf-ARV-1502, 0.5 µmol/L ribosome, 28 °C, 90 min + 90 min, Ki calculated from IC50; for Ki: read-out: Ki (nmol/L), competition with Cf-ARV-1502
Method: E. coli 70S ribosomes were prepared using a previously described protocol that was slightly modified. Briefly, E. coli BW25113 was cultivated in Luria-Bertani (LB) medium and cells were harvested after reaching an optical density of ~4 at 600 nm by centrifugation (5000× g, 15 min, 4 °C, Rotor JLA 8.100, Avanti J-20 XP, Beckmann Coulter, Krefeld, Germany). The cell pellets were frozen and stored at −80 °C. Cells were resuspended in ribosome buffer (2 mL/g cells; 20 mmol/L HEPES-KOH, 6 mmol/L MgCl2, 30 mmol/L NH4Cl, 4 mmol/L 2-mercaptoethanol, pH 7.6). Lysozyme (0.25 g/L cell suspension) was added, and the mixture was incubated on ice for 30 min. Cells were disrupted using the bead mill homogenizer FastPrep-24™ 5G (40 s, 4 m/s, 6 cycles, MP Biomedicals Germany GmbH, Eschwege, Germany) and zirconia/silica beads (0.1 mm diameter). The lysate was centrifuged (1500× g, 5 min, 4 °C, Rotor S4180, Allegra 21R, Beckmann Coulter) and the supernatant was incubated with DNase (5 U/mL) on ice for 60 min.
Dissociation and inhibitory constants were determined in black 384-well-plates (Greiner Bio-One GmbH, Frickenhausen, Germany) blocked with 0.5% (w/v) casein in phosphate buffered saline (PBS, 8.8 mmol/L Na2HPO4×12 H2O, 1.2 mmol/L KH2PO4, 0.3 mol/L NaCl, pH 7.4) containing 0.05% (w/v) Tween® 20 (PBST) overnight at 4 °C and washed three times with PBST.
Ribosome solution was added (10 µmol/L) and the plate was incubated after centrifugation (2 min, 500× g, Rotor S2096, Allegra^TM 21R, Beckmann Coulter) at 28 °C for 90 min. Cf-labeled peptide was added (10 µL; final concentration of 20 nmol/L; final ribosome concentration of 0.5 µmol/L) and the plate was centrifuged and incubated again (90 min, 28 °C, dark). […] Kd and IC50 values were calculated by fitting the data with a variable slope parameter [y = min + (max − min)/(1 + (x/Kd) ^−Hill slope) ] using SigmaPlot 13 (Systat Software Inc., San Jose, CA, USA). The obtained IC50 values were used to calculate the Ki values.

[2] = tested on: E. coli BW25113 ∆sbmA ∆mdtM; format: cell-based, Escherichia coli; details: for Minimal Inhibitory Concentration, 25% MHB2, ∆sbmA ∆mdtM: 25% MHB2, 37 °C; for Minimal Inhibitory Concentration, 25% MHB2, ∆sbmA ∆mdtM / Minimal Inhibitory Concentration, 33% TSB, ∆sbmA ∆mdtM: 20 h, at least duplicates on two days, * once on two days, ** duplicate on one day; for Minimal Inhibitory Concentration, 33% TSB, ∆sbmA ∆mdtM: 37 °C; for Effect of the additional mdtM knockout on antibacterial activity: ∆sbmA ∆mdtM compared with ∆sbmA
Method: (§1) MIC values were determined using a liquid broth micro dilution assay in sterile 96-well plates (polystyrene F-bottom, Greiner Bio-One GmbH) and a total volume of 100 μL per well. Aqueous peptide solutions (10 g/L) were serially twofold diluted in 25% Mueller-Hinton broth 2 (25% MBH2) or 33% tryptic soy broth (33% TSB) starting at a peptide concentration of 128 mg/L (50 μL/well). Overnight cultures of bacteria grown in 25% MHB2 (or 33% TSB) were diluted 30-fold in 25% MHB2 (or 33% TSB). After an incubation period of 4 h (37 °C, 200 rpm), cells were diluted to 1.5 × 10^7 cfu/mL, based on a McFarland test, and 50 μL were added to each well (final concentration of 7.5 × 10^6 […]). The plates were incubated (37 °C, 20 h) and the optical density was recorded at 595 nm using a microplate reader ([…]^TM, Beckmann Coulter). The MIC was defined as the lowest peptide concentration preventing visible bacterial growth.

E. coli 70S ribosome [3] = assay: Cell-free GFP expression assay (in vitro translation); format: biochemical; details: for In Vitro Translation (%): GFP expression remaining relative to control, concentration not given (higher concentration 50 µmol/L)
From the text: Possible effects of ARV-1502 and its substituted analogs on the in vitro translation of the green fluorescent protein (GFP) were probed using the NEB PureExpress Delta RF123 Kit (New England Biolabs, Ipswich, MA, USA). The sfGFP DNA template was amplified from pY71sfGFP plasmid by PCR introducing an UAA stop codon. Release factor 1 (RF1) was 50fold diluted in Pure System Buffer (PSB) containing magnesium acetate (1 mol/L), monopotassium phosphate (0.5 mol/L, pH 7.3), potassium glutamate (1 mol/L), NH4Cl (1 mol/L), calcium chloride (0.5 mol/L), spermidine (1 mol/L), putrescine (0.1 mol/L), and DTT (0.1 mol/L). Each reaction used 35 ng of sfGFP template. Peptides were added at a final concentration of 5 µmol/L and 50 µmol/L. The reaction was started by adding Kit solutions A (2 µL) and B (1.5 µL), diluted RF1 (0.5 µL), sfGFP template (0.25 µL or water as negative control), PSB (0.25 µL), and peptide (0.5 µL or water), mixed, transferred into a black 384-well plate (flat bottom, Greiner Bio-One GmbH), and incubated (37 °C, 2 h). The fluorescence was recorded every 10 min (λexc = 485 nm, λem = 535 nm) in a microplate reader (Gemini EM, Molecular Devices LLC, San Jose, CA, USA).

E. coli BW25113 = assay: MIC, liquid broth micro dilution, wild type; format: cell-based, Escherichia coli; details: for MIC (µg/mL), Table 3: BW25113, 4 h; for Minimal Inhibitory Concentration, 25% MHB2, wt / Minimal Inhibitory Concentration, 33% TSB, wt: BW25113, 20 h
Method: as §1

CC(C)C[C@H](NC(=O)[C@H](Cc1ccc(O)cc1)NC(=O)[C@@H]1CCCN1C(=O)[C@H](CCCNC(=N)N)NC(=O)[C@@H]1CCCN1C(=O)[C@H](CCCCN)NC(=O)[C@H](CC(=O)O)NC(=O)[C@@H]1CCCN1C(=O)[C@H](CCCNC(=N)N)NC(=O)C1(N)CCCCC1)C(=O)N1CCC[C@H]1C(=O)N[C@@H](CCCNC(=N)N)C(=O)N1CCC[C@H]1C(=O)N[C@@H](CCCNC(=N)N)C(=O)N1CCC[C@H]1C(=O)N1CCC[C@H]1C(=O)N[C@@H](CCCNC(=N)N)C(=O)N1CCC[C@H]1C(=O)N[C@H](C(=O)N[C@@H](CCCNC(=N)N)C(N)=O)C(C)C [ARV-1502] (H-[Ac6c]RPDKPRPYLPRPRPPRPVR-NH2)
Ki (E. coli 70S ribosome [1]): 135 ± 10 nmol/L | Minimal Inhibitory Concentration, 25% MHB2, ∆sbmA ∆mdtM [2]: 64 µg/mL | Minimal Inhibitory Concentration, 33% TSB, ∆sbmA ∆mdtM [2]: 128 µg/mL | Effect of the additional mdtM knockout on antibacterial activity [2]: further decreased | In Vitro Translation (%) (E. coli 70S ribosome [3]): 105.8 ± 0.9% | Reduction of GFP expression, 50 µmol/L peptide (E. coli 70S ribosome [3]; cell-free expression, peptide-to-ribosome ratio of 25, GFP fluorescence, 37 °C): no significant effects; also recorded: not at all | MIC (µg/mL), Table 3 (E. coli BW25113): 8 µg/mL (≈ 3.23 µM) | Minimal Inhibitory Concentration, 25% MHB2, wt (E. coli BW25113): 8 µg/mL | Minimal Inhibitory Concentration, 33% TSB, wt (E. coli BW25113): 16 µg/mL

CC[C@H](C)[C@H](NC(=O)[C@@H](CCCNC(=N)N)NC(=O)[C@H](CCCNC(=N)N)NC(=O)[C@@H]1CCCN1C(=O)[C@@H]1CCCN1C(=O)[C@H](CCCNC(=N)N)NC(=O)[C@@H]1CCCN1C(=O)[C@H](CCCNC(=N)N)NC(=O)[C@@H]1CCCN1C(=O)[C@H](CC(C)C)NC(=O)[C@H](Cc1ccc(O)cc1)NC(=O)[C@@H]1CCCN1C(=O)[C@@H]1CCCN1C(=O)[C@H](CCCCN)NC(=O)[C@H](CC(=O)O)NC(=O)[C@@H](N)C(C)C)C(=O)N[C@@H](Cc1ccc(O)cc1)C(=O)N[C@@H](CC(N)=O)C(=O)N[C@H](CCCNC(=N)N)C(N)=O [Onc112, reference compound] (H-VDKPPYLPRPRPPR[dR]IYN[dR]-NH2; N-terminus and C-terminus assumed)
Ki (E. coli 70S ribosome [1]): 124 ± 2 nmol/L | Minimal Inhibitory Concentration, 25% MHB2, ∆sbmA ∆mdtM [2]: 64 µg/mL | Minimal Inhibitory Concentration, 33% TSB, ∆sbmA ∆mdtM [2]: 128 µg/mL | Effect of the additional mdtM knockout on antibacterial activity [2]: weakened the activity | In Vitro Translation (%) (E. coli 70S ribosome [3]): 4.9 ± 0.3% | IC50 (E. coli 70S ribosome [3]; in vitro translation, Supplementary Figure S2, reference 4 is also given at the place, read-out: IC50 of inhibition of GFP expression): 150 nM | MIC (µg/mL), Table 3 (E. coli BW25113): 8 µg/mL (≈ 3.35 µM) | Minimal Inhibitory Concentration, 25% MHB2, wt (E. coli BW25113): 8 µg/mL | Minimal Inhibitory Concentration, 33% TSB, wt (E. coli BW25113): 16 µg/mL

CC(C)C[C@H](NC(=O)[C@H](Cc1ccc(O)cc1)NC(=O)[C@@H]1CCCN1C(=O)[C@H](CCCNC(=N)N)NC(=O)[C@@H]1CCCN1C(=O)[C@H](CCCCN)NC(=O)[C@H](CCCCN)NC(=O)[C@@H]1CCCN1C(=O)[C@H](CCCNC(=N)N)NC(=O)C1(N)CCCCC1)C(=O)N1CCC[C@H]1C(=O)N[C@@H](CCCNC(=N)N)C(=O)N1CCC[C@H]1C(=O)N[C@@H](CCCNC(=N)N)C(=O)N1CCC[C@H]1C(=O)N1CCC[C@H]1C(=O)N[C@@H](CCCNC(=N)N)C(=O)N1CCC[C@H]1C(=O)N[C@H](C(=O)N[C@@H](CCCNC(=N)N)C(N)=O)C(C)C [Peptide 2] (H-[Ac6c]RPKKPRPYLPRPRPPRPVR-NH2; N-terminus and C-terminus assumed)
Ki (nmol/L), competition with Cf-ARV-1502 (E. coli 70S ribosome [1]): did not alter the Ki value | Effect of the additional mdtM knockout on antibacterial activity [2]: no effect | In Vitro Translation (%) (E. coli 70S ribosome [3]): 53.2 ± 8.2% | Reduction of GFP fluorescence intensity, 10-fold lower concentration (5 µmol/L peptide) (E. coli 70S ribosome [3]; cell-free expression, 2.5-fold peptide excess, 37 °C): 22% | MIC (µg/mL), Table 3 (E. coli BW25113): 4 µg/mL (≈ 1.61 µM) | Minimal Inhibitory Concentration, 25% MHB2, wt (E. coli BW25113): 4 µg/mL | Minimal Inhibitory Concentration, 33% TSB, wt (E. coli BW25113): 32 to 64 µg/mL
